These results are taken from US20090197921A1, “USE OF NICOTINE, ANALOGUES, THEREOF, PRECURSORS THEREOF OR D[…] IN THE TREATMENT OF VARIOUS PA[…] CAPABLE OF I[…] a-MSH AD[…] PROPHYLACTIC OR T[…]” (priority 2006, published 2009).

For experiment [1] the following is noted: cited from earlier work.
How the values of experiment [2] were obtained: Patient they are in the ninth month of pregnant without diabetes or hypertension or neuropathy antecedents. […] Twenty four hours later Amikacina IM every 12 hours was administered. […] It was decided to administrate nicotine in watery vehicle by sublingual pathway in a concentration of 3 mg/ml.
At the beginning 15 drops were administrated and 30 minutes later 10 drops more. […] Nicotine was administrated during 4 weeks in dosis of 5 drops by sublingual pathway every three hours.

The conditions of experiment [3]: twenty four hours later.
For experiment [4] the following is noted: 2 drops sublingual every hour. An excerpt:
Patient with post traumatic bleeding (hyphema). […] We indicated a dosis of 2 drops sublingual pathway every hour, for the hyphema was of 90% the vision was poor and the intraocular pressure was 40 mmHg despite last treatment. All medicine was suspended and began the new treatment.

Consider `C/C(=N\N=C(N)N)c1cc(NC(=O)CCCCCCCCC(=O)Nc2cc(/C(C)=N/N=C(N)N)cc(/C(C)=N/N=C(N)N)c2)cc(/C(C)=N/N=C(N)N)c1.Cl.Cl.Cl.Cl` [CNI-1493], for which the “subyacent renal trauma by ischemia/reperfussion” value in experiment [1] (in vivo) is recorded as “does not have effect”. Also, in experiment [1] (renal ischemia/reperfussion), the distant pulmonary trauma entry is recorded as “partialy reduces”.
As for `CN1CCCC1c1cccnc1` (stereo not shown) [nicotine], the pain result in experiment [2] (nicotine 3 mg/ml in watery vehicle, sublingual, 15 drops then 10 drops 30 minutes later) is listed as “diminished significantly”. The general physical state entry in experiment [2] (nicotine 3 mg/ml sublingual) was “improves in the dramatic form”. In experiment [3], this molecule came in with a weight increase of 80 grams. Further, the recovery in experiment [4] (after four weeks) is listed as 90%. Moreover, the vision in experiment [4] (three weeks later) is on record as 20/40.
